Key:
Assay type in all cases: cell-based, human
[1] = test system: lung cancer cell line H460; test: In vitro cell inhibition assay (crystal violet), lung cancer H460
Source text: (§1) In vitro Cell inhibition assay is as follows:
(§2) The human cancer cell lines used for this assay were bladder cancer J82, T24, prostate cancer LNCap, PC-3, lung cancer A549, H157, H460, H520, colon cancer HCT8, HCT116, RkO, and leukemia HL-60, etc.
(§3) In vitro cell culture technology was selected for the determination of inhibition rate bladder cancer cell lines J82 and T24, prostate cancer cell lines LNCap and PC-3, lung cancer cell lines A549, H157, H460 and H520. 1000 to 3000 cells were inoculated to 24-well plate, followed by addition of 1 mL culture medium well known to researchers in this field to each well, the cells were cultured in 5% incubator for 24 hours at 37° C., then the different concentration compounds and controls were added to each well. It should be noted that the added volume is not more than 0.5% of total volume. After completion of addition, the cells continued being cultured in incubator for one week, the culture medium was removed and washed by cold PBS of 1 mL once, and then fixed for 10 minutes at room temperature with 1% formalin, followed by wash with PBS of 1 mL. After fixation, stain was carried out with 0.1% crystal violet for 30 minutes. 0.1% crystal violet was recycled. The stained cells were washed gently with deionized water, dried at room temperature and kepted. The inhibition rate was calculated according to the foiling equation. The controls are Selumetinib (AZD6244), Gefitinib, Cisplatin. Inhibition rate=number of left cells each treatment/number of left cells of untreated control×100%

[2] = test system: lung cancer cell line A549; test: In vitro cell inhibition assay (crystal violet), lung cancer A549
Source text: as §1, §2, §3

[3] = test system: lung cancer cell line H520; test: In vitro cell inhibition assay (crystal violet), lung cancer H520
Source text: as §1, §2, §3

SMILES | Inhibition rate on human cancer cells ([1]; H460, 1.0 μM) [%] | Inhibition rate on human cancer cells ([1]; H460, 2.5 μM) [%] | Inhibition rate on human cancer cells ([1]; H460, 5.0 μM) [%] | Inhibition rate on human cancer cells ([2]; A549, 1.0 μM) [%] | Inhibition rate on human cancer cells ([2]; A549, 2.5 μM) [%] | Inhibition rate on human cancer cells ([2]; A549, 5.0 μM) [%] | Inhibition rate on human cancer cells ([3]; H520, 1.0 μM) [%] | Inhibition rate on human cancer cells ([3]; H520, 2.5 μM) [%] | Inhibition rate on human cancer cells ([3]; H520, 5.0 μM) [%] | Inhibition rate on human cancer cells ([3]; H520, 0.25 μM) [%] | Inhibition rate on human cancer cells ([3]; H520, 0.5 μM) [%] | Inhibition rate on human cancer cells ([1]; H460, 0.25 μM) [%] | Inhibition rate on human cancer cells ([1]; H460, 0.5 μM) [%] | Inhibition rate on human cancer cells ([2]; A549, 0.5 μM) [%]
COC=C(C(=O)OC)c1ccccc1COc1ccc2c(C)c(Cl)c(=O)oc2c1 [28-12] | 75 | 90 | 95 | 80 | 95 | 100 | 50 | 100 | 100 | – | – | – | – | –
COC=C(C(=O)OC)c1ccccc1COc1ccc2c(-c3ccc(Cl)cc3)cc(=O)oc2c1 [28-29] | 70 | 90 | 95 | – | – | 95 | 70 | 70 | 100 | 30 | 40 | – | – | –
CCc1cc(=O)oc2cc(OCc3ccccc3C(=COC)C(=O)OC)ccc12 [28-33] | 90 | 95 | 95 | 80 | 95 | 99 | – | 90 | 100 | – | – | – | – | –
CCCc1cc(=O)oc2cc(OCc3ccccc3C(=COC)C(=O)OC)ccc12 [28-34] | 93 | 95 | 95 | 90 | 95 | 100 | 99 | 100 | 100 | – | 70 | – | – | –
COC=C(C(=O)OC)c1ccccc1COc1ccc2c(-c3ccc(C(F)(F)F)cc3)cc(=O)oc2c1 [28-41] | – | 75 | 85 | – | – | – | – | – | 70 | – | – | – | – | –
COC=C(C(=O)OC)c1ccccc1COc1ccc2c(-c3ccccc3)cc(=O)oc2c1 [28-52] | 100 | 100 | 100 | 95 | 100 | 100 | 100 | 100 | 100 | 70 | 100 | 60 | 90 | 90
CCCCCCc1c(C)c2ccc(OCc3ccccc3C(=COC)C(=O)OC)cc2oc1=O [28-75] | 70 | 90 | 95 | – | – | 90 | – | 80 | 100 | – | – | – | – | –
COC=C(C(=O)OC)c1ccccc1COc1ccc2c3c(c(=O)oc2c1C)CCC3 [28-126] | – | 90 | 95 | – | 85 | 90 | 70 | 90 | 95 | – | – | – | – | –
COC=C(C(=O)OC)c1ccccc1COc1ccc2c(-c3ccccc3Cl)cc(=O)oc2c1 [28-132] | – | – | – | – | – | 90 | – | – | – | – | – | – | – | –
COC=C(C(=O)OC)c1ccccc1COc1ccc2c(-c3cccc(Cl)c3)cc(=O)oc2c1 [28-133] | – | – | – | – | 100 | 100 | – | – | – | – | – | – | – | –
COC=C(C(=O)OC)c1ccccc1COc1ccc2c(-c3ccc(Br)cc3)cc(=O)oc2c1 [28-134] | – | – | – | – | 100 | 100 | – | – | – | – | – | – | – | –
COC=C(C(=O)OC)c1ccccc1COc1ccc2c(-c3ccc(C#N)cc3)cc(=O)oc2c1 [28-135] | – | – | – | – | – | 80 | – | – | – | – | – | – | – | –

Reference: patent US9895346B2, “Applications of substituent benzyloxy group containing ether compounds for preparing antitumor drugs” (Sinochem Corporation, priority 2013, dated 2018)
